Data: patent US10633419B2, “Immunomodulators” (BRISTOL-MYERS SQUIBB COMPANY, priority 2014, dated 2020)
Starred links: 1 amine or outer side, 2 acyl side, 3 side chain; linkers in the order of their positions; H or OH if unused. Positions of bridges follow the written chain, without caps; N, C: chain ends. Non-standard residues stand in square brackets, D forms with d. Residues, ends and D or L forms follow the SMILES beside them. Groups on a side chain read outwards from the residue. *: point of attachment. X4 = O=C(O)CCCCCCCCCCCCCCCCC(=O)N[C@@H](CC(=O)NCCCOCCOCCOCCCN*)C(=O)O; Trp(1-CH2COOH) = N[C@@H](Cc1cn(CC(=O)O)c2ccccc12)C(=O)O; X14 = O=C(O)CCCCCCCCCCNC(=O)CCC(=O)NCCCOCCOCCOCCCN*; C18 diacid = O=C(O)CCCCCCCCCCCCCCCCC(=O)*; Phe(4-F) = N[C@@H](Cc1ccc(F)cc1)C(=O)O; γGlu = O=C(O)[C@H](CCC(=O)[*:2])N[*:1]; d(cisHyp) = O=C(O)[C@H]1C[C@@H](O)CN1; NH(CH2)12COOH = O=C(O)CCCCCCCCCCCCN*; Bta = N[C@@H](Cc1csc2ccccc12)C(=O)O; Ethylenediamine = C(CN[*:2])N[*:1]; PEG6 = NCCOCCOCCOCCOCCOCCOCCC(=O)O; Aha = [N-]=[N+]=NCC[C@H](N)C(=O)O; Hyp = O=C(O)[C@@H]1C[C@@H](O)CN1; NMeNle = CCCC[C@H](NC)C(=O)O; Pip = O=C(O)[C@@H]1CCCCN1; NMeA = CN[C@@H](C)C(=O)O; Pra = C#CC[C@H](N)C(=O)O; Dab = NCC[C@H](N)C(=O)O; Dap = NC[C@H](N)C(=O)O

target: T1, PD-L1 (Homo sapiens, UniProt Q9NZQ7); assay: PD-1/PD-L1 Homogenous Time-Resolved Fluorescence (HTRF) binding assay (PD-1-Ig/PD-L1-His); settings: inhibition of PD-1-Ig binding to PD-L1-TVMV-His; value given as number; read-out: HTRF IC50
T1 construct: hPDL1(19-239)-TVMV-His; made in house; host or cells: HEK293T
Procedure, shortened: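 HTRF competition in dPBS with 0.1% BSA and 0.05% Tween-20: 20 nM PD-1-Ig added after 15 min compound pre-incubation with 10 nM PD-L1-His, then another 15 min. Signal (665/620 nm) after 30 min with APC anti-His (20 nM) and Eu anti-Ig (1 nM).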

T1 sequence (Q9NZQ7 with tags, fused parts or gaps): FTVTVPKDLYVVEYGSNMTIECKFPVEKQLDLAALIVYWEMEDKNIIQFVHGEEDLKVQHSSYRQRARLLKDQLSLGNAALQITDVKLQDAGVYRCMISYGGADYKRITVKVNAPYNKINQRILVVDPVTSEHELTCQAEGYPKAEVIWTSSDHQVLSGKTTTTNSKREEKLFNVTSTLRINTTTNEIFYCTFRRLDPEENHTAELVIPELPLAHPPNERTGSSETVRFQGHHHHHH

| Compound | IC50 [nM] |
| --- | --- |
| CCCC[C@H]1C(=O)N(C)[C@@H](CCCC)C(=O)N[C@@H](CCC(=O)O)C(=O)N[C@H](C(=O)NCCCOCCOCCOCCCNC(=O)CCC(=O)NCCCCCCCCCCC(=O)O)CSCC(=O)N[C@@H](Cc2ccc(O)cc2)C(=O)N(C)[C@@H](C)C(=O)N[C@@H](CC(N)=O)C(=O)N2CCC[C@H]2C(=O)N[C@@H](Cc2cnc[nH]2)C(=O)N[C@@H](CCCCN)C(=O)N2C[C@H](O)C[C@H]2C(=O)N[C@@H](Cc2c[nH]c3ccccc23)C(=O)N[C@@H](CO)C(=O)N[C@@H](Cc2cn(CC(=O)O)c3ccccc23)C(=O)N1C [Example 11080] ({CH2CO}-Y[NMeA]NPHK[Hyp]WS[Trp(1-CH2COOH)][NMeNle][NMeNle]EC-X14; thioether N-14) | 12.7 |

same assay, conditions: inhibition of PD-1-Ig binding to PD-L1-TVMV-His; value given as range class; read-out: HTRF IC50

| Compound | IC50 [nM] |
| --- | --- |
| C#CC[C@H](NC(=O)CNC(=O)[C@@H]1CSCC(=O)N[C@@H](Cc2ccc(O)cc2)C(=O)N(C)[C@@H](C)C(=O)N[C@@H](CC(=O)O)C(=O)N2CCC[C@H]2C(=O)N[C@@H](CN)C(=O)N[C@@H](CC(C)C)C(=O)N2C[C@H](O)C[C@H]2C(=O)N[C@@H](Cc2c[nH]c3ccccc23)C(=O)N[C@@H](CCN)C(=O)N[C@@H](Cc2cn(CC(=O)O)c3ccccc23)C(=O)N(C)[C@@H](CCCC)C(=O)N(C)[C@@H](CCCC)C(=O)N[C@@H](CCC(=O)O)C(=O)N1)C(=O)O [INT130AE] ({CH2CO}-Y[NMeA]DP[Dap]L[Hyp]W[Dab][Trp(1-CH2COOH)][NMeNle][NMeNle]ECG[Pra]-OH; thioether N-14) | 10 to 99 |
| CCCCCCCCCCCCCCCC(=O)N[C@@H](CCn1cc(C[C@H](NC(=O)CNC(=O)[C@@H]2CSCC(=O)N[C@@H](Cc3ccc(O)cc3)C(=O)N(C)[C@@H](C)C(=O)N[C@@H](CC(=O)O)C(=O)N3CCC[C@H]3C(=O)N[C@@H](Cc3c[nH]cn3)C(=O)N[C@@H](CCC(N)=O)C(=O)N3C[C@H](O)C[C@H]3C(=O)N[C@@H](Cc3c[nH]c4ccccc34)C(=O)N[C@@H](CO)C(=O)N[C@@H](Cc3c[nH]c4ccccc34)C(=O)N(C)[C@@H](CCCC)C(=O)N(C)[C@@H](CCCC)C(=O)N[C@@H](CCC(=O)O)C(=O)N2)C(=O)NCC(N)=O)nn1)C(=O)O [Example 14062] | 10 to 99 |
| CCCC[C@H]1C(=O)N(C)[C@@H](CCCC)C(=O)N[C@@H](CC(C)C)C(=O)C[C@H](C(=O)NCC(=O)N[C@@H](CCC(=O)O)C(=O)NCCCOCCOCCOCCCNC(=O)CC[C@H](NC(=O)CCCCCCCCCCCCCCCCC(=O)O)C(=O)O)CSCC(=O)N[C@@H](Cc2ccc(O)cc2)C(=O)N(C)[C@@H](C)C(=O)N[C@@H](CC(N)=O)C(=O)N2CCC[C@H]2C(=O)N[C@@H](CN)C(=O)N[C@@H](CC(C)C)C(=O)N2C[C@H](O)C[C@H]2C(=O)N[C@@H](Cc2c[nH]c3ccccc23)C(=O)N[C@@H](CCN)C(=O)N[C@@H](Cc2cn(CC(=O)O)c3ccccc23)C(=O)N1C [Example 11167] | 0.3 to 9.9 |
| CCCC[C@H]1C(=O)N(C)[C@@H](CCCC)C(=O)N[C@@H](CC(C)C)C(=O)N[C@H](C(=O)NCC(=O)NCC(=O)N[C@@H](CC(=O)O)C(=O)NCCCCCCCCCCCCC(=O)O)CSCC(=O)N[C@@H](Cc2ccc(O)cc2)C(=O)N(C)[C@@H](C)C(=O)N[C@@H](CC(N)=O)C(=O)N2CCC[C@H]2C(=O)N[C@@H](CN)C(=O)N[C@@H](CC(C)C)C(=O)N2C[C@H](O)C[C@H]2C(=O)N[C@@H](Cc2c[nH]c3ccccc23)C(=O)N[C@@H](CCN)C(=O)N[C@@H](Cc2cn(CC(=O)O)c3ccccc23)C(=O)N1C [Example 11221] ({CH2CO}-Y[NMeA]NP[Dap]L[Hyp]W[Dab][Trp(1-CH2COOH)][NMeNle][NMeNle]LCGGD-{NH(CH2)12COOH}; thioether N-14) | 10 to 99 |
| CCCC[C@H]1C(=O)N(C)[C@@H](CCCC)C(=O)N[C@@H](CCCNC(=N)N)C(=O)N[C@H](C(=O)NCC(=O)N[C@@H](CCN=[N+]=[N-])C(N)=O)CSCC(=O)N[C@@H](Cc2ccc(O)cc2)C(=O)N(C)[C@@H](C)C(=O)N[C@@H](CC(N)=O)C(=O)N2CCC[C@H]2C(=O)N[C@@H](CN)C(=O)N[C@@H](CC(C)C)C(=O)N2C[C@H](O)C[C@H]2C(=O)N[C@@H](Cc2c[nH]c3ccccc23)C(=O)N[C@@H](CO)C(=O)N[C@@H](Cc2csc3ccccc23)C(=O)N1C [INT 1300B] ({CH2CO}-Y[NMeA]NP[Dap]L[Hyp]WS[Bta][NMeNle][NMeNle]RCG[Aha]-NH2; thioether N-14) | 0.3 to 9.9 |
| CCCC[C@H]1C(=O)N(C)[C@@H](CCCC)C(=O)N[C@@H](CCC(=O)O)C(=O)N[C@H](C(=O)NCC(=O)N[C@@H](Cc2cn(CC[C@H](NC(=O)CCCCCCCCCCCCCCC(=O)O)C(=O)O)nn2)C(N)=O)CSCC(=O)N[C@@H](Cc2ccc(O)cc2)C(=O)N(C)[C@@H](C)C(=O)N[C@@H](CC(=O)O)C(=O)N2CCC[C@H]2C(=O)N[C@@H](Cc2c[nH]cn2)C(=O)N[C@@H](CCC(N)=O)C(=O)N2C[C@H](O)C[C@H]2C(=O)N[C@@H](Cc2c[nH]c3ccccc23)C(=O)N[C@@H](CO)C(=O)N[C@@H](Cc2c[nH]c3ccccc23)C(=O)N1C [Example 14068] | 10 to 99 |
| CCCC[C@H]1C(=O)N(C)[C@@H](CCCC)C(=O)N[C@@H](CC(C)C)C(=O)N[C@H](C(=O)NCCOCCOCCOCCOCCOCCOCCC(=O)O)CSCC(=O)N[C@@H](Cc2ccc(O)cc2)C(=O)N(C)[C@@H](C)C(=O)N[C@@H](CC(N)=O)C(=O)N2CCC[C@H]2C(=O)N[C@@H](CO)C(=O)N[C@@H](CCC(N)=O)C(=O)N2C[C@H](O)C[C@@H]2C(=O)N[C@@H](Cc2c[nH]c3ccccc23)C(=O)N[C@@H](CO)C(=O)N[C@@H](Cc2cn(CC(=O)O)c3ccccc23)C(=O)N1C [Example 11045] ({CH2CO}-Y[NMeA]NPSQ[d(cisHyp)]WS[Trp(1-CH2COOH)][NMeNle][NMeNle]LC[PEG6]-OH; thioether N-14) | 10 to 99 |
| C#CC[C@H](NC(=O)[C@@H]1CSCC(=O)N[C@@H](Cc2ccc(O)cc2)C(=O)N(C)[C@@H](C)C(=O)N[C@@H](CC(N)=O)C(=O)N2CCC[C@H]2C(=O)N[C@@H](CN)C(=O)N[C@@H](CC(C)C)C(=O)N2C[C@H](O)C[C@H]2C(=O)N[C@@H](Cc2c[nH]c3ccccc23)C(=O)N[C@@H](CCN)C(=O)N[C@@H](Cc2cn(CC(=O)O)c3ccccc23)C(=O)N(C)[C@@H](CCCC)C(=O)N(C)[C@@H](CCCC)C(=O)N[C@@H](CC(=O)O)C(=O)N1)C(=O)O [INT130AH] ({CH2CO}-Y[NMeA]NP[Dap]L[Hyp]W[Dab][Trp(1-CH2COOH)][NMeNle][NMeNle]DC[Pra]-OH; thioether N-14) | 0.3 to 9.9 |
| CCCC[C@H]1C(=O)N(C)[C@@H](CCCC)C(=O)N[C@@H](CC(C)C)C(=O)N[C@H](C(=O)NCC(=O)NCC(=O)NCC(=O)NCCCCCCCCCCCCC(=O)O)CSCC(=O)N[C@@H](Cc2ccc(O)cc2)C(=O)N(C)[C@@H](C)C(=O)N[C@@H](CC(=O)O)C(=O)N2CCC[C@H]2C(=O)N[C@@H](Cc2cnc[nH]2)C(=O)N[C@@H](CCCCN)C(=O)N2C[C@H](O)C[C@H]2C(=O)N[C@@H](Cc2c[nH]c3ccccc23)C(=O)N[C@@H](CCCCN)C(=O)N[C@@H](Cc2cn(CC(=O)O)c3ccccc23)C(=O)N1C [Example 11216] ({CH2CO}-Y[NMeA]DPHK[Hyp]WK[Trp(1-CH2COOH)][NMeNle][NMeNle]LCGGG-{NH(CH2)12COOH}; thioether N-14) | 10 to 99 |
| C#CC[C@H](NC(=O)CNC(=O)[C@@H]1CSCC(=O)N[C@@H](Cc2ccc(O)cc2)C(=O)N(C)[C@@H](C)C(=O)N[C@@H](CC(N)=O)C(=O)N2CCC[C@H]2C(=O)N[C@@H](CN)C(=O)N[C@@H](CC(C)C)C(=O)N2C[C@H](O)C[C@H]2C(=O)N[C@@H](Cc2c[nH]c3ccccc23)C(=O)N[C@@H](CCN)C(=O)N[C@@H](Cc2cn(CC(=O)O)c3ccccc23)C(=O)N(C)[C@@H](CCCC)C(=O)N(C)[C@@H](CCCC)C(=O)N[C@@H](CCC(=O)O)C(=O)N1)C(=O)O [INT130AD] ({CH2CO}-Y[NMeA]NP[Dap]L[Hyp]W[Dab][Trp(1-CH2COOH)][NMeNle][NMeNle]ECG[Pra]-OH; thioether N-14) | 10 to 99 |
| CCCC[C@H]1C(=O)N(C)[C@@H](CCCC)C(=O)N[C@@H](CC(C)C)C(=O)N[C@H](C(=O)NCC(=O)N[C@@H](CCC(=O)NCCNC(=O)CC[C@H](NC(=O)CCCCCCCCCCCCCCCCC(=O)O)C(=O)O)C(=O)O)CSCC(=O)N[C@@H](Cc2ccc(F)cc2)C(=O)N2CCCC[C@H]2C(=O)N[C@@H](CC(=O)O)C(=O)N2CCC[C@H]2C(=O)N[C@@H](CN)C(=O)N[C@@H](CC(C)C)C(=O)N2C[C@H](O)C[C@H]2C(=O)N[C@@H](Cc2c[nH]c3ccccc23)C(=O)N[C@@H](CCN)C(=O)N[C@@H](Cc2cn(CC(=O)O)c3ccccc23)C(=O)N1C [Example 14123] ({CH2CO}-[Phe(4-F)][Pip]DP[Dap]L[Hyp]W[Dab][Trp(1-CH2COOH)][NMeNle][NMeNle]LCGE([Ethylenediamine-γGlu-C18 diacid])-OH; thioether N-14) | 0.3 to 9.9 |
| CCCC[C@H]1C(=O)N(C)[C@@H](CCCC)C(=O)N[C@@H](CC(C)C)C(=O)N[C@H](C(=O)NCC(=O)N[C@@H](CCC(=O)O)C(=O)NCCCOCCOCCOCCCNC(=O)C[C@H](NC(=O)CCCCCCCCCCCCCCCCC(=O)O)C(=O)O)CSCC(=O)N[C@@H](Cc2ccc(O)cc2)C(=O)N(C)[C@@H](C)C(=O)N[C@@H](CC(N)=O)C(=O)N2CCC[C@H]2C(=O)N[C@@H](CN)C(=O)N[C@@H](CC(C)C)C(=O)N2C[C@H](O)C[C@@H]2C(=O)N[C@@H](Cc2c[nH]c3ccccc23)C(=O)N[C@@H](CCN)C(=O)N[C@@H](Cc2cn(CC(=O)O)c3ccccc23)C(=O)N1C [Example 11257] ({CH2CO}-Y[NMeA]NP[Dap]L[d(cisHyp)]W[Dab][Trp(1-CH2COOH)][NMeNle][NMeNle]LCGE-X4; thioether N-14) | 0.3 to 9.9 |
